Drawing on PubChem BioAssay (NCI), this text covers TGI and GI50 for 31 compounds.

“And” between values parts separate entries of the source, which are not always exact repeats. Equal values may be shown once.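 Interpolation was linear, between the two tested concentrations surrounding the appropriate level; five concentrations were tested over 48 hours in 96-well plates. GI50 is the concentration that inhibits growth by half. Definition used: TGI = concentration required for complete inhibition of growth.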

The subject of the first assay is RXF 393 renal. Description: NCI anticancer screen, dose series, 48 h.
`CC(=O)Nc1ccccc1Sc1ccccc1`: the TGI was more than 100 µM.
Compound `COC(=O)C[C@H]1CCC2(OCCO2)[C@]1(C)C(=O)OC` returned a TGI of more than 100 µM.
Take `C=C(CN1CCc2ccccc2C1)c1ccc(C(=O)Nc2cnccn2)cc1`: the GI50 is 39 µM and the TGI is more than 100 µM.
In turn, `CC12CC[C@@H](C(C)(C)O)C1[C@@H](O)CC1(C)C2CCC2[C@@]3(C)CC[C@H](O)C(C)(C)C3C(O)C[C@]21C` (some centres not stated) came in with a TGI of 23.5 µM.
Consider `O=C(CI)NC1Oc2ccccc2-c2oc(=O)c(-c3ccccc3)cc21` (configuration not stated), for which the GI50 is 1.5 µM and the TGI turned out to be 3 µM.
In the case of `CCOC(=O)NC(=O)c1cn(C2OC(COC(=O)CCCCCCCCC(=O)OCC3OC(n4cc(C(=O)NC(=O)OCC)c(=O)[nH]c4=O)C(O)C3O)C(O)C2O)c(=O)[nH]c1=O` (configuration not stated), the TGI was more than 100 µM.
On the same count and under the same terms, the value for `Cc1ccc(C)c(NC(=O)CC/C(=N\NC(=O)C(=O)NN)C(C)C(=O)c2ccc(O)cc2)c1` (configuration not stated) was more than 100 µM; that for `N=C1CSC2=NC3=C(CCC/C3=C\c3ccccc3)C(c3ccccc3)N12` (configuration not stated) was 17.4 µM; that for `COc1ccc(CNc2cc(OC)c(OC)c(OC)c2)cc1` was 23 µM.
Regarding `CCOC(=O)/C=C(/C(=O)OCC)n1cc(Cl)c(=O)n(CC(=O)OCC)c1=O`, the GI50 was 0.298 µM; the TGI is 8.55 µM and 2.59 µM.
In turn, `COc1ccccc1C1C(C(=O)Nc2ccccc2)=C(C)NC(C)=C1C(=O)Nc1ccccc1` gave a TGI of more than 100 µM.
For the compound `OCc1ccc2[n+](c1)CCC1c3ccccc3NC21` (configuration not stated), the TGI was more than 300 µM.
Still for that read-out and setting: the value for `CCCCCCCCCCCC(=O)CC(=O)c1c(O)cccc1O` was 34.5 µM; that for `Cc1cc2c(cc1C)[n+](=O)c(C(=O)CC(=O)C(=O)Nc1c(C(C)C)cccc1C(C)C)c(C)n2[O-]` was more than 100 µM.
The same measure, in the same setting: the figure for `COc1ccc2cc1Oc1ccc(cc1)CC1c3cc(c(OC)cc3CCN1C)Oc1c3c(cc4c1C(C2)N(C)CC4)OCO3` (configuration not stated) is 6.24 µM.
Take `Cc1ccc(-c2c3c([nH]c(=O)c2C#N)-c2cc(F)ccc2OC3)cc1`: the GI50 was more than 100 µM and the TGI was more than 100 µM.
For the compound `COc1ccc(OC)c(NC(=O)C(=O)C(C(C)=O)c2nc3ccc(Cl)cc3[nH]c2=O)c1` (configuration not stated), the TGI is more than 50 µM.
On the same count and under the same terms, the figure for `N#CC(C(=N/O)/C(=N/O)C(C#N)c1ccc(Cl)cc1)c1ccc(Cl)cc1` (configuration not stated) is 98.7 µM.

A further assay deals with SN12C renal. Description: NCI anticancer screen, dose series, 48 h.
Consider `CC1(Cl)C(=O)NC(=O)N(C2CC(N=[N+]=[N-])C(CO)O2)C1N=[N+]=[N-]` (configuration not stated), for which the TGI was more than 100 µM.
Same read-out and setting: the value for `COc1ccc2ccc3c(c2c1)CN1CCc2cc(OC)c(OC)cc2C1C3` (configuration not stated) was more than 100 µM; that for `CCCCNC1=C(C(=O)OCC)C(=O)CO1` was more than 100 µM.
For `CC(C)CC(=O)[O-].CC(C)CC(=O)[O-].N.N.N.N.[Co+3].[O-][Cl+3]([O-])([O-])[O-]`, the GI50 was more than 100 µM and the TGI was more than 100 µM.
Consider `COc1cc(C2c3cc4c(cc3C(NCC(O)CO)C3COC(=O)[C@H]23)OCO4)cc(OC)c1OC` (some centres not stated), for which the TGI is more than 100 µM.
As for `COC(=O)CC(=O)C[P+](c1ccccc1)(c1ccccc1)c1ccccc1`, the TGI was more than 218 µM.
The same measure, in the same setting: the value for `CCCCN(CCCC)C(=O)C(=O)C(C#N)c1ccc(C)cc1` (configuration not stated) was more than 100 µM; that for `Cc1ccc(S(=O)(=O)C(CC(=O)N2CCCC2)C(=O)c2ccccc2)cc1` (configuration not stated) was more than 100 µM; that for `CC1(C)CC(/C=C2/OC(=O)c3ccccc32)=C(C#N)C(=O)O1` was more than 100 µM.
Same read-out and setting: the value for `Cc1nc2c(nc1Cl)nc(Oc1ccc(Cl)cc1)c1ccccc12` was more than 100 µM.
Same read-out and setting: the figure for `CC(=O)Nc1ccccc1Sc1ccccc1` is more than 100 µM.
Turning to `COC(=O)C[C@H]1CCC2(OCCO2)[C@]1(C)C(=O)OC`, the TGI is more than 100 µM.
Still for that read-out and setting: the figure for `CCCCCCCCCC[C@@H](O)[C@@H]1CC[C@H]([C@H]2CC[C@@H]([C@@H](O)CCCCCCCCCC[C@H]3CC(CC(C)=O)C(=O)O3)O2)O1` (some centres not stated) is 49.1 µM.
In the case of `C=C(CN1CCc2ccccc2C1)c1ccc(C(=O)Nc2cnccn2)cc1`, the GI50 is 50.4 µM and the TGI was more than 100 µM.
For `CC12CC[C@@H](C(C)(C)O)C1[C@@H](O)CC1(C)C2CCC2[C@@]3(C)CC[C@H](O)C(C)(C)C3C(O)C[C@]21C` (some centres not stated), the TGI came to 29.9 µM.
As for `CCOC(=O)NC(=O)c1cn(C2OC(COC(=O)CCCCCCCCC(=O)OCC3OC(n4cc(C(=O)NC(=O)OCC)c(=O)[nH]c4=O)C(O)C3O)C(O)C2O)c(=O)[nH]c1=O` (configuration not stated), the TGI was more than 100 µM.
The same measure, in the same setting: the value for `Cc1ccc(C)c(NC(=O)CC/C(=N\NC(=O)C(=O)NN)C(C)C(=O)c2ccc(O)cc2)c1` (configuration not stated) was more than 100 µM; that for `N=C1CSC2=NC3=C(CCC/C3=C\c3ccccc3)C(c3ccccc3)N12` (configuration not stated) was 27.9 µM.
Still for that read-out and setting: the value for `COc1ccc(CNc2cc(OC)c(OC)c(OC)c2)cc1` was more than 100 µM.
Same read-out and setting: the figure for `CCOC(=O)/C=C(/C(=O)OCC)n1cc(Cl)c(=O)n(CC(=O)OCC)c1=O` is 10.9 µM and 32.7 µM; for `COc1ccccc1C1C(C(=O)Nc2ccccc2)=C(C)NC(C)=C1C(=O)Nc1ccccc1` it is more than 100 µM; for `OCc1ccc2[n+](c1)CCC1c3ccccc3NC21` (configuration not stated) it is more than 300 µM.
The compound `CCCCCCCCCCCC(=O)CC(=O)c1c(O)cccc1O` had a TGI of 33.6 µM.
On the same count and under the same terms, the figure for `CN(C(=O)C12C3C4C1C1C2C3C41C(=O)C(C)(C)C)C(C)(C)C` (configuration not stated) is more than 100 µM; for `Cc1cc2c(cc1C)[n+](=O)c(C(=O)CC(=O)C(=O)Nc1c(C(C)C)cccc1C(C)C)c(C)n2[O-]` it is more than 100 µM.
Same read-out and setting: the figure for `COc1ccc2cc1Oc1ccc(cc1)CC1c3cc(c(OC)cc3CCN1C)Oc1c3c(cc4c1C(C2)N(C)CC4)OCO3` (configuration not stated) is 23.7 µM.
Regarding `Cc1ccc(-c2c3c([nH]c(=O)c2C#N)-c2cc(F)ccc2OC3)cc1`, the GI50 is more than 100 µM and the TGI is more than 100 µM.
`COc1ccc(OC)c(NC(=O)C(=O)C(C(C)=O)c2nc3ccc(Cl)cc3[nH]c2=O)c1` (configuration not stated) yielded a TGI of more than 50 µM.
On the same count and under the same terms, the value for `N#CC(C(=N/O)/C(=N/O)C(C#N)c1ccc(Cl)cc1)c1ccc(Cl)cc1` (configuration not stated) was more than 100 µM.

Another assay relates to SK-MEL-2 melanoma. Description: NCI anticancer screen, dose series, 48 h.
`CC1(Cl)C(=O)NC(=O)N(C2CC(N=[N+]=[N-])C(CO)O2)C1N=[N+]=[N-]` (configuration not stated) displayed a TGI of more than 100 µM.
Same read-out and setting: the figure for `COc1ccc2ccc3c(c2c1)CN1CCc2cc(OC)c(OC)cc2C1C3` (configuration not stated) is more than 100 µM.
On the same count and under the same terms, the figure for `OCCC1(O)CCC(O)CC1` (configuration not stated) is more than 100 µM; for `CCCCNC1=C(C(=O)OCC)C(=O)CO1` it is more than 100 µM.
As for `CC(C)CC(=O)[O-].CC(C)CC(=O)[O-].N.N.N.N.[Co+3].[O-][Cl+3]([O-])([O-])[O-]`, the GI50 was more than 100 µM and the TGI was more than 100 µM.
`COC(=O)CC(=O)C[P+](c1ccccc1)(c1ccccc1)c1ccccc1` displayed a TGI of more than 218 µM.
The same measure, in the same setting: the value for `CCCCN(CCCC)C(=O)C(=O)C(C#N)c1ccc(C)cc1` (configuration not stated) was more than 100 µM.
